# Test results as given in ChEMBL document CHEMBL4823282, “Novel Broad-Spectrum Antimicrobial Peptide Derived from Anoplin and Its Activity on Bacterial Pneumonia in Mice” (J Med Chem, 2021).
# Active and inactive are the calls of the source. The rule behind the calls is not given here. Where a SMILES comes first, the peptide text is derived from it. Bridges are numbered along the chain shown (N, C = ends). [ ]: non-standard residue; d: D form. The star is where a group is joined. X1 = CC[C@H](C)CCCCC(=O)*; Dab = NCC[C@H](N)C(=O)O
# Legend:
# [1] = system: Staphylococcus aureus; test: Antibacterial activity against Staphylococcus aureus ATCC 25923 incubated for 18 hrs by CLSI based broth dilution method; format: functional
# [2] = system: Bacillus subtilis; test: Antibacterial activity against Bacillus subtilis ATCC 23857 incubated for 18 hrs by CLSI based broth dilution method; format: functional
# [3] = system: Enterococcus faecalis; test: Antibacterial activity against Enterococcus faecalis ATCC 29212 incubated for 18 hrs by CLSI based broth dilution method; format: functional
# [4] = system: Staphylococcus epidermidis; test: Antibacterial activity against Staphylococcus epidermidis ATCC 12228 incubated for 18 hrs by CLSI based broth dilution method; format: functional
# [5] = system: Escherichia coli; test: Antibacterial activity against Escherichia coli ATCC 25922 incubated for 18 hrs by CLSI based broth dilution method; format: functional
# [6] = system: Pseudomonas aeruginosa; test: Antibacterial activity against Pseudomonas aeruginosa ATCC 27853 incubated for 18 hrs by CLSI based broth dilution method; format: functional
# [7] = system: Klebsiella pneumoniae; test: Antibacterial activity against Klebsiella pneumoniae ATCC 700603 incubated for 18 hrs by CLSI based broth dilution method; format: functional
# [8] = system: Acinetobacter baumannii; test: Antibacterial activity against Acinetobacter baumannii ATCC 19606 incubated for 18 hrs by CLSI based broth dilution method; format: functional; settings: ATCC 19606 = CIP 70.34 = JCM 6841
# [9] = system: Erythrocyte; test: Hemolytic activity in BALB/C mouse erythrocytes incubated for 1 hr by absorbance method; format: ADME, cell-based
# [10] = Cytotoxicity against human glomerular mesangial cells incubated for 12 hrs by MTT assay; format: cell-based; settings: Glomerular mesangial cell
# [11] = system: Cell membrane; test: Disruption of membrane integrity in Staphylococcus aureus ATCC 25923 assessed as membrane shrinking at 1 times MIC measured within 0.5 hrs by scanning electron microscopy; format: subcellular
# [12] = system: Pseudomonas aeruginosa; test: Antibacterial activity against gentamicin-resistant Pseudomonas aeruginosa ATCC 27853 incubated for 18 hrs by CLSI based broth dilution method; format: functional
# [13] = system: Bacteria; test: Antibacterial activity against bacteria incubated for 18 hrs by CLSI based broth dilution method; format: functional
# [14] = system: Fungi; test: Antibacterial activity against fungi incubated for 18 hrs by CLSI based broth dilution method; format: functional
# [15] = Selectivity ratio of MHC10 for BALB/C mouse erythrocytes to MIC for bacteria; format: toxicity
# [16] = Selectivity ratio of MHC10 for BALB/C mouse erythrocytes to MIC for fungi; format: toxicity
# [17] = system: Bacteria; test: Antibacterial activity against Gram-positive bacteria incubated for 18 hrs by CLSI based broth dilution method; format: functional
# [18] = Selectivity ratio of MHC10 for BALB/C mouse erythrocytes to MIC for gram positive bacteria; format: toxicity
# [19] = system: Bacteria; test: Antibacterial activity against Gram-negative bacteria incubated for 18 hrs by CLSI based broth dilution method; format: functional
# [20] = Selectivity ratio of MHC10 for BALB/C mouse erythrocytes to MIC for gram-negative bacteria; format: toxicity
# [21] = system: Staphylococcus aureus; test: Bactericidal activity against Staphylococcus aureus ATCC 25923 at 2MIC by time-kill assay; format: functional, organism-based; settings: time 24.0 hrs, TDE = time-dependent effect
# [22] = system: Klebsiella pneumoniae; test: Bactericidal activity against Klebsiella pneumoniae 700603 at 2MIC by time-kill assay relative to control; format: functional
# [23] = system: Escherichia coli; test: Antibiofilm activity against Escherichia coli ATCC 25922 incubated for 24 hrs by crystal violet staining assay; format: functional, organism-based
# [24] = system: Cell membrane; test: Induction of inner membrane permeabilization in Klebsiella pneumoniae ATCC 700603 at 0.5 to 4MIC using ONPG as substrate by spectroscopic method; format: subcellular; settings: Klebsiella pneumoniae 700603, 0.5 to 4M
# [25] = system: Staphylococcus aureus; test: Antibacterial activity against Staphylococcus aureus ATCC 25923 at 0.5 to 1 times MIC incubated for 24 hrs by crystal violet staining based assay; format: functional, organism-based
# [26] = system: Lipopolysaccharide (LPS); test: Binding affinity to LPS (unknown origin) assessed as bacterial killing at 2 times MIC preincubated for 1 hr followed by Escherichia coli ATCC 25922 addition and measured after 2 hrs by absorbance method; settings: time 3.0 hrs
# [27] = system: Staphylococcus aureus; test: Disruption of membrane integrity in Staphylococcus aureus ATCC 25923 assessed as membrane creeping at 1 times MIC incubated for 0.5 to 2 hrs by scanning electron microscopy; format: functional, organism-based; settings: time 0.5-2 hrs
# [28] = system: Staphylococcus aureus; test: Disruption of membrane integrity in Staphylococcus aureus ATCC 25923 assessed as membrane blebbing at 1 times MIC measured within 0.5 hrs by scanning electron microscopy; format: functional, organism-based
# [29] = system: Cell membrane; test: Disruption of membrane integrity in Staphylococcus aureus ATCC 25923 assessed as bacterial death at 1 times MIC measured within 0.5 hrs by scanning electron microscopy; format: subcellular
# [30] = system: Cell membrane; test: Disruption of membrane integrity in Klebsiella pneumoniae ATCC 700603 assessed as bacterial death at 1 times MIC incubated for 0.5 to 2 hrs by scanning electron microscopy; format: subcellular; settings: Klebsiella pneumoniae 700603, time 0.5-2 hrs
# [31] = system: Staphylococcus aureus; test: Disruption of bacterial cell membrane in Staphylococcus aureus ATCC 25923 assessed as increase in PI uptake incubated for 30 to 120 mins by FACS flow cytometry; format: functional, organism-based; settings: time 30-120 min
# [32] = system: Pseudomonas aeruginosa; test: Synergistic antibacterial activity against Pseudomonas aeruginosa ATCC 27853 at 2 times MIC incubated for 18 to 24 hrs in presence of 2 times MIC of rifampicin by broth microdilution assay based checkerboard assay; format: functional; settings: time 18-24 hrs
# [33] = system: Escherichia coli; test: Synergistic antibacterial activity against Escherichia coli ATCC 25922 at 2 times MIC incubated for 18 to 24 hrs in presence of 2 times MIC of rifampicin by broth microdilution assay based checkerboard assay; format: functional; settings: time 18-24 hrs
# [34] = system: Klebsiella pneumoniae; test: Synergistic antibacterial activity against Klebsiella pneumoniae ATCC 700603 at 2 times MIC incubated for 18 to 24 hrs in presence of 2 times MIC of rifampicin by broth microdilution assay based checkerboard assay; format: functional; settings: time 18-24 hrs
# [35] = system: Klebsiella pneumoniae; test: Synergistic antibacterial activity against Klebsiella pneumoniae ATCC 700603 at 2 times MIC incubated for 18 to 24 hrs in presence of 2 times MIC of gentamycin by broth microdilution assay based checkerboard assay; format: functional; settings: time 18-24 hrs
# [36] = system: Pseudomonas aeruginosa; test: Antibacterial activity against rifampin-resistant Pseudomonas aeruginosa ATCC 27853 incubated for 18 hrs by CLSI based broth dilution method; format: functional
# [37] = system: Klebsiella pneumoniae; test: Antibacterial activity against Klebsiella pneumoniae ATCC 700603 infected in BALB/C mouse assessed as reduction in bacterial load in lung at 5 mg/kg, ip measured within 24 hrs by agar plate counting method (reference value: 2.77 x 10^7 CFU/mg); format: functional
# [38] = Toxicity in ip dosed BALB/C mouse measured within 14 days by Karber-method; format: organism-based; settings: in vivo, time 14 day
# [39] = Toxicity in BALB/C mouse assessed as mouse death at 15 to 25 mg/kg, ip measured within 2 days; format: organism-based; settings: in vivo, 48 h, dose 15-25 mg/kg, time 2 day
# [40] = Toxicity in BALB/C mouse assessed as effect on lung at 19 mg/kg, ip administered as single dose by hematoxylin and eosin staining based assay; format: organism-based; settings: in vivo
# [41] = system: Cell membrane; test: Disruption of membrane integrity in Klebsiella pneumoniae ATCC 700603 assessed as membrane cracking at 1 times MIC incubated for 0.5 to 2 hrs by scanning electron microscopy; format: subcellular; settings: Klebsiella pneumoniae 700603, time 0.5-2 hrs
# [42] = system: Klebsiella pneumoniae; test: Antibacterial activity against Klebsiella pneumoniae ATCC 700603 infected in BALB/C mouse assessed as reduction in inflammatory cell infiltration in […] at 5 mg/kg, ip by hematoxylin and eosin staining based assay; format: functional, organism-based
# [43] = 2M, TDE = time-dependent effect
compound,measurement,setting,value
NCCCC[C@H](NC(=O)[C@H](CCCCN)NC(=O)[C@H](Cc1c[nH]c2ccccc12)NC(=O)[C@H](CCCCN)NC(=O)[C@H](CCCCN)NC(=O)[C@H](Cc1c[nH]c2ccccc12)NC(=O)[C@H](Cc1c[nH]c2ccccc12)NC(=O)[C@@H](N)CCCCN)C(=O)N[C@@H](Cc1c[nH]c2ccccc12)C(=O)N[C@@H](Cc1c[nH]c2ccccc12)C(N)=O (H-KWWKKWKKWW-NH2),MIC,[1],4 µM
same,MIC,[2],4 µM
same,MIC,[3],8 µM
same,MIC,[4],4 µM
same,MIC,[5],4 µM
same,MIC,[6],4 µM
same,MIC,[7],8 µM
same,MIC,[8],8 µM
same,MHC10,[9],134.38 µM
same,IC50,[10],40.2 µM
same,Activity,[11],Active
same,MIC,[12],2 µM
same,MIC,[13],4.76 µM
same,MIC,[14],4.76 µM
same,selectivity ratio,[15],28.2
same,selectivity ratio,[16],28.2
same,MIC,[17],4.76 µM
same,selectivity ratio at 18 h,[18],28.2
same,MIC,[19],4.76 µM
same,selectivity ratio,[20],28.2
same,Activity,[21],Tde
same,Activity,[22],100%
same,Activity,[22]; [43],Tde
same,Activity,[23],Dose-Dependent Effect
same,Activity,[24],inactive
same,Activity,[25],Active
same,Activity,[26],Dose-Dependent Effect
same,Activity,[27],Active
same,Activity,[28],Active
same,Activity,[29],Active
same,Activity,[30],Active
same,Activity,[31],Active
same,FIC,[32],0.5625
same,FIC,[33],0.75
same,FIC,[34],0.3125
same,FIC,[35],0.5625
same,MIC,[36],2 µM
same,Activity,[37],4.12 10^4CFU/mg
same,LD50 at 336 h,[38],66.5 mg/kg
same,Activity,[39],Toxic
same,Activity,[40],Toxic
CC[C@H](C)CCCCC(=O)N[C@@H](CCN)C(=O)N[C@H](C(=O)N[C@@H](CCN)C(=O)N[C@H]1CCNC(=O)[C@H]([C@@H](C)O)NC(=O)[C@H](CCN)NC(=O)[C@H](CCN)NC(=O)[C@H](CC(C)C)NC(=O)[C@@H](Cc2ccccc2)NC(=O)[C@H](CCN)NC1=O)[C@@H](C)O (X1-[Dab]T[Dab][Dab][Dab][dF]L[Dab][Dab]T; lactam 4-C),MIC,[1],16 µM
same,MIC,[2],8 µM
same,MIC,[3],128 µM
same,MIC,[4],32 µM
same,MIC,[5],4 µM
same,MIC,[6],4 µM
same,MIC,[7],4 µM
same,MIC,[8],32 µM
same,MHC10,[9],>= 512 uM
same,IC50,[10],≥ 512 µM
same,Activity,[11],inactive
same,MIC,[12],2 µM
same,MIC,[13],12.3 µM
same,MIC,[14],12.3 µM
same,selectivity ratio,[15],4150
same,selectivity ratio,[16],4150
same,MIC,[17],26.9 µM
same,selectivity ratio at 18 h,[18],19
same,MIC,[19],5.66 µM
same,selectivity ratio,[20],90.5
same,Activity,[21],Tde
same,Activity,[22]; [43],Tde
same,Activity,[24],inactive
same,Activity,[25],Active
same,Activity,[26],Dose-Dependent Effect
same,Activity,[28],inactive
same,Activity,[29],inactive
same,Activity,[41],Active
same,Activity,[30],Active
same,Activity,[31],inactive
same,FIC,[32],0.3125
same,FIC,[33],0.125
same,FIC,[34],0.3125
same,FIC,[35],0.5
same,MIC,[36],2 µM
same,Activity,[37],3.21 10^4CFU/ml
same,Activity,[42],inactive
same,LD50 at 336 h,[38],16.4 mg/kg
same,Activity,[39],Toxic
